Several values for one entry are separate records, joined by “and”; a condition that tells them apart may be missing. Identical values can stand only once.
Experiments:
Type in all cases: cell-based
[1] = system: platelets (platelet rich plasma); assay: PAP-8E normal aggregation test, channel to channel data; design: Average % Agg.: dose or concentration left out as unconfirmed; details: for Average Slope: PAP-8E 340 nM LED; for Average % Agg.: PAP-8E 340 nm LED
Description: This test method preferably uses a normal platelet rich plasma (PRP) that has 200,000 platelets per cubic mm, with 1 μL volume. At about 6 μm long (oval), the platelets are quite small.
The normal test volume for the PAP-8E using the UV LED's is 500 μL. Using this volume, and the 200,000 platelets per cubic mm, we can assume there are (500×200,000=) 100,000,000 platelets.
During testing the beam of radiation passes through about 25% of the PRP. The task then, is to measure how many and how fast this smaller percentage of the PRP reacts and aggregates. This is done by the measurement of the change in transmission between a platelet poor (PPP) blank and the platelet rich sample.
The channel to channel variation in the PAP-8 E is now less than 11% CV for slope reproducibility and less than 8% CV for % aggregation reproducibility.

[2] = system: platelets; assay: Ristocetin dilution test (factor assay), PAP-8E aggregometer with short-wavelength LED; details: for 100% Avg. / 100% Slope: 100% level
Description: (§1) Factor assay test methods benefit from the higher sensitivity of aggregometers utilizing short-wavelength LEDs. In these methods, reference curves are developed with a standard plasma (90-120% activity of the factor) that is serially diluted (down) to an activity of 1.56% (1:64 dilution). Tests are based on the rate of change in optical density.
(§2) This is a quality control test in which ristocetin/plasma are tested to select the best dilution for a lot of ristocetin reagent. The attenuation of samples was measured at 8.5 mg/ml to 11.0 mg/ml concentrations to determine a slope of each sample (see Table 1, 100% slope, 100% Avg.). The slope is known by those skilled in the art as an indicator of the rate of reaction of the ristocetin reagent. Each of the 8.5 mg/ml to 11.0 mg/ml concentration ristocetin/plasma concentrations were also respectively tested diluted to 50% (see Table 1, 50% slope, 50% Avg.). The results of Table 1 are plotted in FIGS. 4a and 4b. FIG. 4a plots the slopes for each concentration at both 100% and 50% levels. FIG. 4b plots the difference in slopes between the 100% and 50% dilution levels for each concentration. […] Such irregularity makes reliable testing and analysis decision making difficult. […]
The most common use of aggregation in the United States is a test method called the Ristocetin Cofactor Assay. This assay uses standard lyophilized platelets and a plasma that contains a factor. This method uses a standard curve where the standard plasma is diluted to concentrations of 100% to 25%.

[3] = system: platelets; assay: Ristocetin dilution test (factor assay), PAP-4 aggregometer with 626 nm LED; details: PAP-4 626 nm LED; for 100% Avg. / 100% Slope: 100% level
Excerpt: as §1
Table 1 below and FIGS. 4a and 4b provide test results of a factor assay test: a ristocetin dilution test using an aggregometer with a 626 nm (long-wavelength) LED.
as §2

[4] = Ristocetin 8.5 mg/ml diluted to 50%
[5] = Ristocetin 9.0 mg/ml diluted to 50%
[6] = Ristocetin 9.5 mg/ml diluted to 50%
[7] = Ristocetin 10.0 mg/ml diluted to 50%
[8] = Ristocetin 10.5 mg/ml diluted to 50%
[9] = Ristocetin 11.0 mg/ml diluted to 50%

Compound: Nc1ncnc2c1ncn2[C@@H]1O[C@H](COP(=O)(O)OP(=O)(O)O)[C@@H](O)[C@H]1O [ADP]
- Average Slope [1]: 41.3
- Average % Agg. [1]: 72.6%

Compound: CCCCC/C=C\C/C=C\C/C=C\C/C=C\CCCC(=O)O [Arachidonic Acid]
- Average Slope [1]: 38.9
- Average % Agg. [1]: 73.5%

Compound: CNC[C@H](O)c1ccc(O)c(O)c1 [Epinephrine]
- Average Slope [1]: 30.5
- Average % Agg. [1]: 73.1%

Compound: Collagen
- Average Slope [1]: 44.0
- Average % Agg. [1]: 74.9%

Compound: ristocetin
- Difference 100 − 50 ([2]; Ristocetin 8.5 mg/ml): 2.5
- 50% Avg. [2, 4]: 23.0
- 50% Slope [2, 4]: 22.0 and 24.0
- 100% Avg. ([2]; Ristocetin 8.5 mg/ml): 25.5
- 100% Slope ([2]; Ristocetin 8.5 mg/ml): 23.0 and 28.0
- Difference 100 − 50 ([2]; Ristocetin 9.0 mg/ml): 5.0
- 50% Avg. [2, 5]: 26.5
- 50% Slope [2, 5]: 28.0 and 25.0
- 100% Avg. ([2]; Ristocetin 9.0 mg/ml): 31.5
- 100% Slope ([2]; Ristocetin 9.0 mg/ml): 32.0 and 31.0
- Difference 100 − 50 ([2]; Ristocetin 9.5 mg/ml): 8.0
- 50% Avg. [2, 6]: 23.5
- 50% Slope [2, 6]: 24.0 and 23.0
- 100% Avg. ([2]; Ristocetin 9.5 mg/ml): 31.5
- 100% Slope ([2]; Ristocetin 9.5 mg/ml): 31.0 and 32.0
- Difference 100 − 50 ([2]; Ristocetin 10.0 mg/ml): 9.0
- 50% Avg. [2, 7]: 21.5
- 50% Slope [2, 7]: 22.0 and 21.0
- 100% Avg. ([2]; Ristocetin 10.0 mg/ml): 30.5
- 100% Slope ([2]; Ristocetin 10.0 mg/ml): 31.0 and 30.0
- Difference 100 − 50 ([2]; Ristocetin 10.5 mg/ml): 8.0
- 50% Avg. [2, 8]: 23.5
- 50% Slope [2, 8]: 21.0 and 26.0
- 100% Avg. ([2]; Ristocetin 10.5 mg/ml): 31.5
- 100% Slope ([2]; Ristocetin 10.5 mg/ml): 30.0 and 33.0
- Difference 100 − 50 ([2]; Ristocetin 11.0 mg/ml): 4.0
- 50% Avg. [2, 9]: 27.5
- 50% Slope [2, 9]: 29.0 and 26.0
- 100% Avg. ([2]; Ristocetin 11.0 mg/ml): 31.5
- 100% Slope ([2]; Ristocetin 11.0 mg/ml): 30.0 and 33.0
- 50% Avg. [3, 4]: 29.5
- 50% Slope [3, 4]: 29.0 and 30.0
- 100% Avg. ([3]; Ristocetin 8.5 mg/ml): 42.0
- 100% Slope ([3]; Ristocetin 8.5 mg/ml): 42.0
- Difference 100 − 50 ([3]; Ristocetin 8.5 mg/ml): 12.5
- 50% Avg. [3, 5]: 33.5
- 50% Slope [3, 5]: 32.0 and 35.0
- 100% Avg. ([3]; Ristocetin 9.0 mg/ml): 46.5
- 100% Slope ([3]; Ristocetin 9.0 mg/ml): 47.0 and 46.0
- Difference 100 − 50 ([3]; Ristocetin 9.0 mg/ml): 13.0
- 50% Avg. [3, 6]: 32.0
- 50% Slope [3, 6]: 33.0 and 31.0
- 100% Avg. ([3]; Ristocetin 9.5 mg/ml): 40.5
- 100% Slope ([3]; Ristocetin 9.5 mg/ml): 41.0 and 40.0
- Difference 100 − 50 ([3]; Ristocetin 9.5 mg/ml): 8.5
- 50% Avg. [3, 7]: 33.5
- 50% Slope [3, 7]: 33.0 and 34.0
- 100% Avg. ([3]; Ristocetin 10.0 mg/ml): 43.5
- 100% Slope ([3]; Ristocetin 10.0 mg/ml): 41.0 and 46.0
- Difference 100 − 50 ([3]; Ristocetin 10.0 mg/ml): 10.0
- 50% Avg. [3, 8]: 33.0
- 50% Slope [3, 8]: 31.0 and 35.0
- 100% Avg. ([3]; Ristocetin 10.5 mg/ml): 39.5
- 100% Slope ([3]; Ristocetin 10.5 mg/ml): 39.0 and 40.0
- Difference 100 − 50 ([3]; Ristocetin 10.5 mg/ml): 6.5
- 50% Avg. [3, 9]: 28.5
- 50% Slope [3, 9]: 28.0 and 29.0
- 100% Avg. ([3]; Ristocetin 11.0 mg/ml): 36.5
- 100% Slope ([3]; Ristocetin 11.0 mg/ml): 41.0 and 32.0
- Difference 100 − 50 ([3]; Ristocetin 11.0 mg/ml): 8.0

Reference: US7453555B2, “Aggregometer with near ultraviolet light source” (Bio/Data Corporation, priority 2005, dated 2008)
